Assay results reported in patent US20040058898A1, “Pharmaceutical composition for alleviating the violence of a mammal comprising nortestosterone derivatives” (priority 2002, published 2004).

Assays:
Type in all cases: in vivo
[1] = tested on: male horses which violently behaved, cried and did not take feed; assay: Alleviation of the violence and stimulation of the appetite in male horse; conditions: male horses 200 kg, 20, 40, 100, 200, 300, 400, 1000 and 2000 mg (0.1 to 10 mg per kg), Experimental Example 25, summary of Table 8
Description: (§1) After administration, their behaviors and appetites were observed.

[2] = tested on: male dogs which violently behaved, cried and did not take feed; assay: Alleviation of the violence and stimulation of the appetite in male dog; conditions: male dogs 40 kg, 4, 8, 20, 40, 60, 80, 200 and 400 mg (0.1 to 10 mg per kg), Experimental Example 21, summary of Table 4
Description: as §1

[3] = tested on: male cats which violently behaved, cried and did not take feed; assay: Alleviation of the violence and stimulation of the appetite in male cat; conditions: male cats 1 kg, 0.1, 0.2, 0.5, 1.0, 1.5, 2.0, 5.0 and 10 mg (0.1 to 10 mg per kg), Experimental Example 23, summary of Table 6
Description: as §1

[4] = tested on: male ostriches which violently behaved, cried and did not take feed; assay: Alleviation of the violence and stimulation of the appetite in male ostrich
Description: as §1

[5] = tested on: male goats which violently behaved, cried and did not take feed; assay: Alleviation of the violence and stimulation of the appetite in male goat; conditions: male goats 40 kg, 4, 8, 20, 40, 60, 80, 200 and 400 mg (0.1 to 10 mg per kg), Experimental Example 27, summary of Table 10
Description: as §1

[6] = male ostriches 100 kg, 10, 20, 50, 100, 150, 200, 500 and 1000 mg (0.1 to 10 mg per kg), Experimental Example 2, summary of Table 2

## C[C@]12CC[C@H]3[C@@H](CCC4=CC(=O)CC[C@@H]43)[C@@H]1CC[C@@H]2O [17β-hydroxy-4-estren-3-one]
[1]
  appetite after intramuscular injection: appetite stimulated
  feed intake after administration: increased feed intake
  violence of estrus after intramuscular injection: violence of estrus alleviated
[2]
  appetite after intramuscular injection: appetite stimulated
  feed intake after administration: increased feed intake
  violence of estrus after intramuscular injection: violence of estrus alleviated
[3]
  appetite after intramuscular injection: appetite stimulated
  feed intake after administration: increased feed intake
  violence of estrus after intramuscular injection: violence of estrus alleviated
[4]; male ostrich, same procedures as Experimental Example 1 (100 kg, intramuscular, 100 mg), Example 1 result: alleviated violence and stimulated appetite
  Alleviation of the violence and stimulation of the appetite: results compared with 17β-decanoate-4-estren-3-one: the same with the result of the experiment using 17β-decanoate-4-estren-3-one in Experimental Example 1
[4]; male ostrich, same procedures as Experimental Example 2 (100 kg, intramuscular, 10 to 1000 mg), Example 2 result: alleviated violence and stimulated appetite at every amount
  Alleviation of the violence and stimulation of the appetite according to administered amount: results compared with 17β-decanoate-4-estren-3-one: the same with the result of the experiment using 17β-decanoate-4-estren-3-one in Experimental Example 2
[4]; [6]
  appetite after intramuscular injection: appetite stimulated
  feed intake after administration: increased feed intake
  violence of estrus after intramuscular injection: violence of estrus alleviated
[5]
  appetite after intramuscular injection: appetite stimulated
  feed intake after administration: increased feed intake
  violence of estrus after intramuscular injection: violence of estrus alleviated
